Entries after “also recorded” stand apart in the source; their conditions may differ.

For assay [1], the system named is tau-tau binding. Nature of the assay: Solid-phase tau-tau binding assay, tau Preparation 1 (WO96/30766). Type of assay: biochemical, human. The text has this:
This point was further examined by studying the potency of typical aggregated tau ligands as tau-aggregation inhibitors. It has been shown previously that tau aggregation inhibitors (e.g. diaminophenothiazines) can be identified on the basis of inhibition of tau-tau binding in a solid-phase assay (WO 96/30766). […] Thus, although these compounds are potent ligands for tau within the PHF-core, they are at most weak inhibitors at the site required for inhibition of tau-tau binding.
Large-scale purification (1 liter bacterial culture) of tau fragments was carried out as described by Goedert and Jakes (1990, EMBO J., 9, 4225-4230), with minor modifications. Cells were disrupted by rapid freezing of the cell pellet in liquid nitrogen. The pellets were then suspended in buffer containing 50 mM PIPES, 1 mM dithiothreitol (DTT) (pH 6.8). The thermostable proteins in the supernatant were dialysed against PIPES/DTT, then applied to a column containing phosphocellulose equilibrated in the same buffer. […] Fractions were analysed by SDS-PAGE and both Coomassie staining and immunoblotting. […] Protein concentrations were measured by the Lowry method (Harrington C R (1990), “Lowry protein assay containing sodium dodecyl sulphate in microtitre plates for protein determinations on fractions from brain tissue”, Analytical Biochemistry 186: 285-287).

A further assay has as its system neurofibrillary tangles. Nature of the assay: Fluorescence labelling of tangles (sections, ifI tangle suspensions). Type of assay: binding, human. As for the experimental part: In ifI suspensions such as this, tangles can be seen by blue fluorescence which is […] from that associated with binding of contaminants in the preparation. […] (a) Chemical labelling with the biotinylated benzothiazole analogue shown as 4b in FIG. 4. PHFs were deposited on a carbon-coated grid after Pronase digestion, and incubated briefly with compound 4b, and then incubated with an anti-biotin antibody preparation that had been conjugated with colloidal gold. […] (b) mAb 423 immunolabelling of isolated PHFs after Pronase digestion., followed by incubation with a gold-conjugated goat anti-mouse second antibody as described in Novak et al. 1993 (Novak M, Kabat J, Wischik C M (1993) “Molecular characterisation of the minimal protease-resistant tau unit of the Alzheimers' disease paired helical filament”, EMBO J. 12: 365-370). As shown in this paper, mAb 423 labels PHFs derived from intracellular tangles (which preserve N-terminal tau immunoreactivity in the fuzzy outer coat) poorly, but Pronase digested PHFs strongly.
Serial 16 μm sections are cut from the hippocampus of a case dying with clinically and neuropathologically confirmed AD. […]
A Leitz fluorescence microscope fitted with a photo-multiplyer tube (Model MPV-2) was used to quantitate fluorescence emission. […]

For assay [2], the target named is T1, tau-tau binding (Homo sapiens, UniProt P10636).
T1 construct: a truncated tau protein corresponding to the core fragment and terminating at Ala390-dGA; dGAE which terminates at Glu-391; made in house; host or cells: E. coli BL21 (DE3), pRK172; DE52 flow-through, P11 phosphocellulose, PEG concentration, no heat step (Preparation 2)
T1 sequence (P10636 614-708 limits assumed): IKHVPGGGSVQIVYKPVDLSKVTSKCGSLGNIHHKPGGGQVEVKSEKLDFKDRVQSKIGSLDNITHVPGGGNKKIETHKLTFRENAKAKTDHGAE
Nature of the assay: Relief of DMMB inhibition of tau-tau binding by ligands (Preparation 2). Type of assay: biochemical. The settings on record: for BMax of tau-tau binding: Binding=(BMax×[ligand])/(Kd+[ligand]). The text has this: 2. using tau proteins prepared in this manner for testing putative ligands in the tau-tau binding assay provided in WO96/30766 to identify substances which have minimal or entirely absent activity as tau-aggregation inhibitors or enhance tau-tau binding at high concentrations; 3. testing putative ligands in the presence of an exemplary potent tau-aggregation inhibitor, such as DMMB, at an inhibitory concentration; 4. putative ligands can be identified by the property that they lack capacity to block tau-tau binding through the repeat domain, but block the inhibitory activity of a potent tau-aggregation inhibitor.
(ii) contacting (a) a tau protein or a derivative thereof containing the tau core fragment bound to a solid phase so as to expose a high affinity tau capture site (e.g. a truncated tau protein corresponding to the core fragment and terminating at Ala390-dGA), with (b) a liquid phase tau protein or derivative thereof capable of binding to the solid phase tau protein or derivative (e.g. dGAE which terminates at Glu-391), and (c) said selected first agent and (d) a second agent known to be tau-tau binding inhibitor, (iii) selecting a first agent which fully or partially relieves the inhibition of binding of the liquid phase tau protein or derivative of (b) to the solid phase tau protein or derivative of (a) by the inhibitor (d).
Similar results are shown for 15 μM DMMB in the presence of increasing concentrations of Primulin (c) and Thiazin Red (d).
For each graph, Tau-Tau binding is shown in the presence of constant concentrations of DMMB co-incubated with Primulin at 0×, 1×, 5×, 10×, 100× the DMMB concentrations shown.
This implies that the Tau-aggregation enhancement effect of these ligands is proportional to the fraction of ligand-binding sites occupied, presumably within the Tau aggregates introduced into the aqueous-phase of the assay. The mean Bmax for both ligands is ˜1.6. That is, the maximum ligand effect is to produce 1.6-fold the Tau-Tau binding signal seen in the absence of any drug. The mean Kd for this effect is ˜15×. That is, for any given concentration of DMMB>4 μM, 50% of maximal enhancement of Tau-Tau binding can be seen when the ligand molar excess is 15-fold relative to the concentration of DMMB.

Regarding `Cc1ccc2sc(-c3ccc4sc(-c5ccc(N)cc5)nc4c3)nc2c1S(=O)(=O)[O-].[Na+]` [primulin], the “inhibition of tau-tau binding” value in the assay with tau-tau binding [1] is “weak inhibitors of tau-tau binding”. Further, in the assay with neurofibrillary tangles, the labelling of tangles result was “label tangles”. Also, the “BMax of tau-tau binding” value at tau-tau binding [2] (5 μM DMMB) is listed as 1.38; at tau-tau binding [2] (25 μM DMMB) it was 1.67. The “reversal of inhibitory effect of DMMB on tau-tau binding” value on tau-tau binding [2] (co-incubation with increasing molar excess of ligand) was “progressively attenuated and reversed; also recorded: completely reversed”.

The values above are taken from US8097615B2, “Neurofibrillary labels” (Wista Laboratories Ltd., priority 2001, dated 2012).
